Measurements as given in PubChem BioAssay AID288 (DTP/NCI, 2004).
Where “and” joins values, the source holds several entries; their conditions need not be identical. Equal entries are not always repeated. Results filed as inconclusive are left out. Numbered stars: 1 amine (or outer) side, 2 acyl side, 3 side chain; on linkers, the order of the positions; unused ones are H or OH. Bridge positions count the residues as written; N and C are the ends. Square brackets hold non-standard residues; d marks the D form. Peptide text beside a SMILES is read from it. I, II: the chains in the order shown. * marks the point of attachment. ξ: configuration not given here. Quinaldoyl(3-OH,6-OMe) = COc1ccc2nc(C(=O)*)c(O)cc2c1; X1 = CCC(=O)OC1CC=NN([*:1])C1C(=O)[*:2]; X2 = CC(=O)OC1CC=NN([*:1])C1C(=O)[*:2]; ξNMeVal(3-OH) = CNC(C(=O)O)C(C)(C)O; Sar = CNCC(=O)O

Tested on: BDF1 mice, M5076 sarcoma s.c., survival/tumor T/C
Test: NCI In Vivo Anticancer Drug Screen. Data for tumor model Sarcoma M5076 (subcutaneous) in B6D2F1 (BDF1) mice
Procedure: The antitumor activity of compounds was measured in mice bearing transplantable tumors. Survival or tumor size were measured and the results are expressed as the measurement made in the treated group (T) divided by the measurement made in the vehicle treated control group (C). The tumor model used in this assay is Sarcoma M5076 (subcutaneous) in B6D2F1 (BDF1) mice

[1] = endpoint: median survival time, dose: 50.0 mg/kg/injection, schedule: Q01DX009 (ip), vehicle: saline with Tween-80, higher = longer survival
[2] = endpoint: median survival time, dose: 100.0 mg/kg/injection, schedule: Q01DX009 (ip), vehicle: saline with Tween-80, higher = longer survival
[3] = endpoint: median survival time, dose: 200.0 mg/kg/injection, schedule: Q01DX009 (ip), vehicle: saline with Tween-80, higher = longer survival
[4] = endpoint: median tumor weight (est.), dose: 50.0 mg/kg/injection, schedule: Q01DX009 (ip), vehicle: saline with Tween-80, higher = larger tumour
[5] = endpoint: median tumor weight (est.), dose: 100.0 mg/kg/injection, schedule: Q01DX009 (ip), vehicle: saline with Tween-80, higher = larger tumour
[6] = endpoint: median tumor weight (est.), dose: 200.0 mg/kg/injection, schedule: Q01DX009 (ip), vehicle: saline with Tween-80, higher = larger tumour

| SMILES | T/C [1] | T/C [2] | T/C [3] | T/C [4] | T/C [5] | also measured |
| --- | --- | --- | --- | --- | --- | --- |
| [N-]=[N+]=CC(=O)CCC(N)C(=O)O (centres undefined) |  |  |  |  |  | T/C (endpoint: median survival time, dose: 1.0 mg/kg/injection, schedule: Q04DX005 (ip), vehicle: saline, higher = longer survival): 150 % of control and 159 % of control; T/C (endpoint: median survival time, dose: 2.0 mg/kg/injection, schedule: Q04DX005 (ip), vehicle: saline, higher = longer survival): 166 % of control and 167 % of control; T/C (endpoint: median survival time, dose: 4.0 mg/kg/injection, schedule: Q04DX005 (ip), vehicle: saline, higher = longer survival): 181 % of control and 183 % of control; T/C (endpoint: median survival time, dose: 8.0 mg/kg/injection, schedule: Q04DX005 (ip), vehicle: saline, higher = longer survival): 186 % of control and 188 % of control; T/C (endpoint: median survival time, dose: 16.0 mg/kg/injection, schedule: Q04DX005 (ip), vehicle: saline, higher = longer survival): 98 % of control |
| O=C1/C(=C/c2cccc([N+](=O)[O-])c2)SC(=S)N1C1CC1 | 94 % of control | 94 % of control | 89 % of control | 100 % of control | 97 % of control |  |
| COc1cc(/C=N/NC(=O)COCC(=O)N/N=C/c2ccc(O)cc2OC)ccc1O | 94 % of control | 86 % of control | 91 % of control | 116 % of control | 122 % of control | T/C [6]: 122 % of control |
| COc1cc2cc3c4cc(OC)c(OC)cc4cc[n+]3c(C)c2cc1OC (tested in a mixture with another compound) |  |  |  |  |  | T/C (endpoint: mean tumor weight, dose: 37.5 mg/kg/injection, schedule: Q02DX011 (ip), vehicle: saline, higher = larger tumour): 64 % of control; T/C (endpoint: mean tumor weight, dose: 75.0 mg/kg/injection, schedule: Q02DX011 (ip), vehicle: saline, higher = larger tumour): 45 % of control; T/C (endpoint: mean tumor weight, dose: 150.0 mg/kg/injection, schedule: Q02DX011 (ip), vehicle: saline, higher = larger tumour): 13 % of control |
| C[c-]1[c-][c-][c-][c-]1.C[c-]1[c-][c-][c-][c-]1.[C-]#[O+].[C-]#[O+].[C-]#[O+].[C-]#[O+].[C-]#[O+].[C-]#[O+].[Mo].[Mo] |  | 111 % of control | 94 % of control |  |  |  |
| O=C1CC(=O)N(C2CCCCC2)C(=O)N1c1ccccc1S(=O)(=O)Oc1ccccc1 | 94 % of control | 90 % of control | 100 % of control | 111 % of control | 56 % of control | T/C [6]: 96 % of control |
| CCC(=O)OC1CC=NN2C(=O)C(NC(=O)c3nc4ccc(OC)cc4cc3O)COC(=O)C(C(C)(C)O)N(C)C(=O)CN(C)C(=O)CNC(=O)C3C(OC(C)=O)CC=NN3C(=O)C(NC(=O)c3nc4ccc(OC)cc4cc3O)COC(=O)C(C(C)(C)O)N(C)C(=O)CN(C)C(=O)CNC(=O)C12 (centres undefined) (I: {Quinaldoyl(3-OH,6-OMe)}-S[X1]G[Sar][ξNMeVal(3-OH)] / II: {Quinaldoyl(3-OH,6-OMe)}-S[X2]G[Sar][ξNMeVal(3-OH)]; ester I:1-II:C, I:C-II:1; configuration not given here) |  |  |  |  |  | T/C (endpoint: median survival time, dose: 18.8 micrograms/kg/injection, schedule: Q01DX009 (ip), vehicle: Klucel (hydroxypropylcellulose) (HPC), higher = longer survival): 89 % of control; T/C (endpoint: median tumor weight (est.), dose: 18.8 micrograms/kg/injection, schedule: Q01DX009 (ip), vehicle: DMSO, higher = larger tumour): 86 % of control |
| CN(C)S(=O)(=O)c1ccc(CCCCc2ccc(N3C(N)=NC(N)=NC3(C)C)cc2Cl)c(Cl)c1 |  |  |  |  |  | T/C (endpoint: median survival time, dose: 38.0 mg/kg/injection, schedule: Q01DX009 (ip), vehicle: saline with Tween-80, higher = longer survival): 100 % of control |
| O=c1[nH]cc(F)c(=O)[nH]1 |  |  |  |  |  | T/C (endpoint: median survival time, dose: 6.25 mg/kg/injection, schedule: Q04DX006 (ip), vehicle: saline, higher = longer survival): 105 % of control; T/C (endpoint: median survival time, dose: 12.5 mg/kg/injection, schedule: Q02DX033 (ip), vehicle: saline, higher = longer survival): 101 % of control; T/C (endpoint: median survival time, dose: 12.5 mg/kg/injection, schedule: Q04DX006 (ip), vehicle: saline, higher = longer survival): 100 % of control; T/C (endpoint: median survival time, dose: 25.0 mg/kg/injection, schedule: Q02DX033 (ip), vehicle: saline, higher = longer survival): 105 % of control; T/C (endpoint: median survival time, dose: 25.0 mg/kg/injection, schedule: Q04DX006 (ip), vehicle: saline, higher = longer survival): 108 % of control; T/C (endpoint: median survival time, dose: 50.0 mg/kg/injection, schedule: Q04DX006 (ip), vehicle: saline, higher = longer survival): 105 % of control |
| CCC(C)C(NS(=O)(=O)c1ccc(C)cc1)C(=O)O (centres undefined) | 87 % of control | 92 % of control | 92 % of control |  |  |  |
